Row | melting point [°C] | Structure (SMILES)
1 | 224 to 225 | CN(C)c1ccc(-c2cnn(-c3cccc(C(=O)O)c3)c2)cc1
2 | 156 to 157 | CSc1nc(CC2CCN(c3ccccc3)CC2)nc(C(=O)NCC(=O)O)c1O
3 | 196 to 204 | CNC(=O)Nc1ccc2c(c1)C(=O)C1(CC1)O2
4 | 79 to 81 | OCc1cccc2nnsc12
5 | 177 to 181 | CCOc1ccc(-n2c(N)cc(=O)nc2SC)cc1
6 | 89.5 to 92 | COC(=O)c1ccc(CO)cc1SCc1ccccc1
7 | 240 | COc1cc(C)c2cc(C(=O)c3ccc(C(=O)O)cc3)ccc2c1C
8 | 138 to 142 | CON=C(C(=O)O)c1nsc(NC(=O)OCc2ccccc2)n1
9 | 160 to 163 | COc1ccc(C(=O)Nc2ccc(F)c(F)c2)cc1NCc1cccc(O)c1
10 | 106 to 112 | Cc1cc(F)ccc1-c1nc(NC(C)(C)CO)nc2c1ccc(=O)n2-c1ccccc1F
11 | 140 to 142 | CC1(C)COC(=O)N1c1nc(-c2ccc(Cl)c(F)c2)cs1
12 | 198 to 199 | C[C@@H](n1cnc2cc(Oc3ccc(Cl)cc3)ccc2c1=O)[C@](O)(Cn1cncn1)c1ccc(F)cc1F
13 | 63 to 68 | O=C(N1CCC(c2nc(-c3c(Cl)cccc3Cl)no2)CC1)N1CCCc2ccccc21
14 | 228 to 229 | Cc1ccnc(-c2nc3ccccc3[nH]2)c1
15 | 139 to 140 | C=CCn1nc(C)c(CC(=O)O)c1C
16 | 273 to 275 | CNC(=O)c1ccc(C)c(-c2nc(SC)nc3c2CNC(=O)N3c2c(F)cccc2F)c1
17 | 122 to 123 | COC(=O)[C@H](Cc1ccc(OCCN2CCC(O)(c3ccccc3)CC2)cc1)NC(=O)[C@@H]1CCCN1S(=O)(=O)c1ccc(C)cc1
18 | 145 to 147 | COc1nc(=O)c(Cc2ccc(C)nc2)c[nH]1
19 | 123 to 126 | Cc1ccc(S(=O)(=O)OCCCCCCCn2c3c(c4ccccc4c2=O)C(=O)c2ccccc2-3)cc1
20 | 193 to 195 | CCCCc1ccc(-c2coc(C(=O)O)cc2=O)cc1
21 | 183 to 185 | CC(=O)C1CCC2C3CCC4=CC(=O)C=CC4(C)C3CCC12C (stereo unspecified)
22 | 79 to 80 | COCCNc1cncc(C(N)=O)c1
23 | 186 | N=C(N)Nc1nc(C(=O)NCC(=O)NC(CC(=O)O)c2cccnc2)cs1 (racemic)
24 | 68 to 82 | CCCN(Cc1ccc(-c2ccccc2-c2nnn[nH]2)cc1)c1nc(OCc2ccccc2)ccc1C(=O)O

Row | melting point [°C] | Structure (SMILES)
25 | 201 to 202 | COc1ccc(Cl)cc1C(=O)NC1Cc2cc(S(=O)(=O)NC(=S)NC(C)C)c(OC)cc2OC1(C)C (stereo unspecified)
26 | 155 to 157 | CCOC(=O)Cc1c(C)n(Cc2csc(-c3ccc(Cl)cc3)n2)c2ccc(OCc3csc(-c4ccccc4)n3)cc12
27 | 180 | CCOC(=O)CCNc1nc2c(C)cc(C)cc2n1Cc1nc(C)ccc1O
28 | 155 to 157 | O=C(O)CN1C(=O)C(=CCCCCl)SC1=S
29 | 98 | Cc1ccc(S(N)(=O)=O)cc1C(O)CN=[N+]=[N-] (stereo unspecified)
30 | 185 to 187 | COC(=O)C1=Cc2cc(-c3ccc4c(c3)OCO4)ccc2S(=O)(=O)CC1
31 | 27 to 28 | N#Cc1cc(OCF)cc([N+](=O)[O-])c1Cl
32 | 140 to 141 | COc1c([N+](=O)[O-])ncn1C
33 | 72 to 74 | CCCCCCCCOC(=O)COc1cc(F)ccc1C(=O)NCc1cccc([N+](=O)[O-])c1
34 | > 200 | CSc1cc2c(cc1C(F)(F)F)N(C(=O)Nc1cccc(C(=O)Nc3ccncc3)c1)CC2
35 | 131 to 133 | CN(C)C=C1CCN(c2ccccc2)c2ccccc2C1=O
36 | 72 | Cc1cc(C)nc(NC(=O)Cc2ccsc2Br)c1
37 | 248 | FC1=CC2NC(=S)CCC2C=C1c1cccnc1 (stereo unspecified)
38 | 128 | Cc1ccc(Nc2cc(NCc3ccccc3)c(C(=O)O)cc2S(N)(=O)=O)cc1
39 | 201 to 202 | Cc1cccc(Cl)c1NC(=S)Nc1c(C)nn(C)c1C
40 | 97 to 99 | CCC1=C(c2cccc(C(F)(F)F)c2)n2ncc(C#N)c2N(C(=O)CN2CCN(Cc3ccccc3)CC2)C1
41 | 102 to 128 | NC(=O)C1CCCC(C(=O)O)C1 (stereo unspecified)
42 | 74 to 76 | Cn1cccc1C(=O)CS(C)=O (stereo unspecified)
43 | 107 to 112 | O=C(c1ccccc1)C(O)C1OC(n2cnc3c(NC4CCCc5ccccc54)ncnc32)C(O)C1O (stereo unspecified)
44 | 195 to 196 | CC1Nc2ccc(-c3ccc(C#N)n3C)cc2C(C)(C)O1 (stereo unspecified)
45 | 237 | CC(=O)N1CC=C(C2=C(C#N)C(c3cccc4nonc34)c3c[nH]nc3N2)CC1 (stereo unspecified)
46 | 199 to 200 | COC(=O)c1cc2c(S(=O)(=O)Cl)cc(Cl)c(Cl)c2o1
47 | 77 to 78 | CCCCCCCCCCN(O)C(=O)NCCC(=O)OC
48 | 77 to 79 | CCCCCCCN(CCCCCS(=O)c1nc(-c2ccccc2)c(-c2ccccc2)[nH]1)C(=O)Nc1ccc(F)cc1F (stereo unspecified)

Row | melting point [°C] | Structure (SMILES)
49 | 228 to 230 | Cc1cccc2c1S(=O)(=O)NC(C1CCCCC1)N2 (stereo unspecified)
50 | 140 to 142 | O=[N+]([O-])c1ccc(NCCS(=O)(=O)NCCCOc2cccc(CN3CCCCC3)c2)cc1
51 | 208 to 214 | O=C1Nc2ccccc2C(c2ccccc2F)CC1Br (stereo unspecified)
52 | 184 to 186 | CC(=O)Oc1ccccc1C(=O)CNc1c(C(=O)O)[nH]c2cc(Cl)ccc12
53 | 195 to 196 | CC1CC(=Cc2cc(C(C)(C)C)c(O)c(C(C)(C)C)c2)C(=O)N1C(N)=O (stereo unspecified)
54 | 162 to 164 | CNCCCNC(=O)c1[nH]c(-c2ccccc2)c2cc(Cl)ccc12
55 | 162 to 164 | CCOC(=O)C(NC(=O)Nc1c(F)cc(F)cc1CCc1cc(C(C)(C)C)c(O)c(C(C)(C)C)c1)c1ccccc1 (stereo unspecified)
56 | 155 to 157 | CCOC(=O)Cc1ccc(-n2c(-c3cccnc3N)nc3ccc(-c4cccnc4)nc32)cc1
57 | 117 to 120 | COc1ccc2c(c1)CC(CC#N)C2=O (stereo unspecified)
58 | 129 to 133 | Cc1c(C)c2c(c(C)c1N)CC(C)(C(=O)N1CCc3c([nH]c4ccccc34)C1)O2 (stereo unspecified)
59 | 91.3 | FC(F)Oc1cccc(C=C2c3ccccc3CCc3ccccc32)c1
60 | > 250 | C[Si](C)(C)Oc1nc(-c2ccccc2)nc2c1CC(S(=O)(=O)c1ccccc1)CC2 (stereo unspecified)
61 | 375 | O=C(O)c1cccc2c(=O)c3cc([N+](=O)[O-])ccc3[nH]c12
62 | 208 to 214 | COc1cc(C(=O)NC2CCC(N(C)C)CC2)ccc1Nc1ncc2c(n1)N(C1CCCCC1)CC(F)(F)C(=O)N2C (stereo unspecified)
63 | 259 to 260 | Cc1cc(C#N)cc(C)c1Nc1nc(Nc2ccc(C#N)cc2)nc(Cl)c1Br
64 | 170 to 174 | CCCN(CCC)C(=O)Cn1c(-c2ccc(Cl)cc2)nc2ccc(Cl)nc21
65 | 62 | BrCCCCCCCCCCCCCCCCCCCCBr
66 | 181 to 183 | COc1cc(N)c(N)cc1C(N)=O
67 | 108 to 110 | O=C(CS(=O)c1ccccc1)Nc1c([N+](=O)[O-])cnn1-c1c(Cl)cc(C(F)(F)F)cc1Cl (stereo unspecified)
68 | 175 to 177 | O=C(c1ccc(-c2ccccc2)cc1)N1Cc2cccnc2Nc2ccccc21
69 | 190 to 191 | COc1cc(C(=O)NC2CCN(C(=O)CN(C)C)CC2)ccc1Nc1ncc2c(n1)N(C1CCCCC1)CC(F)(F)C(=O)N2C
70 | 53 to 55 | CCCCCCCCCCCCCCOC(=O)CS(=O)(=O)Nc1c(C(C)C)cccc1C(C)C
71 | 130 to 131 | O=C(Cc1ccncc1)Nc1cccc(-c2ccnc3c(C(=O)c4cccs4)cnn23)c1
72 | 168 to 170 | Cn1cc(C2=C(c3cn(CCCNC(N)=NC#N)c4ccccc34)C(=O)NC2=O)c2ccccc21

Row | melting point [°C] | Structure (SMILES)
73 | 246 to 248 | CCN1C(=O)C(=S2CN(CC)c3ccccc32)SC1=S (stereo unspecified)
74 | 72 to 74 | Cc1cc(C)c(CSc2ccccc2)c(-c2ccc(F)c(C)c2)c1
75 | 198 to 203 | CC(=O)N1CCC(CCCCC(=O)O)CC1
76 | 204 to 206 | O=C(c1[nH]c2ccc(F)cc2c1Sc1ccccn1)N1CCCC1
77 | 138 | CCCC(NC(=O)C1CC(=O)c2cc(F)ccc2O1)c1ccccc1 (single isomer, unassigned; (+))
78 | 232 to 234 | Nc1nc2c(sc(=O)n2C2OC(CO)C(O)C2F)c(=O)[nH]1 (stereo unspecified)
79 | 179 to 180 | CCOP(=O)(Cc1ccc(NC(=O)c2sc(SC)c3c2CCc2sc(CC)nc2-3)cc1)OCC
80 | 98 to 100 | COc1ccc2c(c1)CCC1C2CCC2(C)C1CCC2N(C=O)CCN(C)C (stereo unspecified)
81 | 169 to 170 | NC(=O)c1cc(-c2cccc3cc(Cc4cc(F)cc(Cl)c4)sc23)ccc1F
82 | 183 to 185 | O=C(O)COc1ccc2c(c1)-c1nc(S(=O)(=O)CC(c3ccccc3)c3ccccc3)sc1CC2
83 | 131 to 132 | CCC[C@H](NC(=O)/C=C/S(=O)(=O)c1ccccc1)C(=S)OC
84 | 136 to 138 | O=C(O)COc1cccc2c1CCc1sc(SCCCC(c3ccccc3)c3ccccc3)nc1-2
85 | 122 to 123 | CC(C)[C@H](NC(=O)OCC1c2ccccc2-c2ccccc21)C(=O)N[C@@H](C)C(=O)O
86 | 103 to 106 | CCC(CC)Nc1c([N+](=O)[O-])cc(C)c(COC(=O)COc2ccc(Cl)cc2Cl)c1[N+](=O)[O-]
87 | 150 | COc1ccc(CCN(C)CCOc2ccc(NC(=O)c3cc(SC)cc4c(=O)c5ccccc5[nH]c34)cc2)cc1OC
88 | > 350 | O=c1[nH]ncc2c1c(O)nc1cc(Cl)c(Cl)cc12
89 | 150 | CCN(CC)CCOc1ccc(Nc2ncc3c(n2)N(C)C(=O)N(c2cccc(Br)c2)C3)cc1
90 | 54 to 55 | CCCCCCCCC(OC(C)=O)C1=CC(=O)OC1O (stereo unspecified)
91 | 160 to 161 | CCCn1nc2c(N)nc3ccccc3c2c1NCc1ccccc1
92 | 130 to 131 | COc1ccc(C(=N)N(N)c2c(Cl)cncc2Cl)cc1OC1CCCC1
93 | < 50 | CCSN(C)C(=O)Nc1ccc(C)c(Cl)c1

Row | Structure (SMILES) | melting point [°C]
94 | N#Cc1ccc(N2C[C@@H]3[C@H](O)CCN3C2=O)c2ccccc12 | 226 to 228
95 | CCOc1c(C23OCC(C)(C)C2(C(C)(C)C)OO3)sc2ccc(O[Si](C)(C)C(C)(C)C)cc12 (stereo unspecified) | 106 to 107
96 | CC(C)N1CCN(c2ccc(Br)cn2)CC1 | 76 to 78
